Our source for the particle size values is patent US20030032662A1, “Micronized leflunomide” (priority 2000, published 2003).

Molecules are shown by their SMILES.

A short description of the data set: Particle size after micronizing in a micronizer. The class given is physicochemical. The conditions noted are these: pure dry leflunomide micronized in a micronizer (Example 1). The source says:
Pure dry leflunomide was micronized in a micronizer. The result was micronized leflunomide of a particle size of less than 5 micrometer.

Take `Cc1oncc1C(=O)Nc1ccc(C(F)(F)F)cc1` [micronized leflunomide, N-(4′-trifluoromethylphenyl)-5-methylisoxazole-4-carboxamide]: the particle size entry is listed as “less than 5 micrometer”.
